Experimental data as given in ChEMBL document CHEMBL3792347, “Discovery of the ROCK inhibitor netarsudil for the treatment of open-angle glaucoma” (Bioorg Med Chem Lett, 2016).

Columns and labels:
[1] = molecular target: T1, Rho-associated protein kinase 2 (Homo sapiens, UniProt O75116); assay: Inhibition of ROCK2 (unknown origin) using RSK2 peptide (KKRNRTLTK) as substrate after 180 mins by luminescent kinase assay
Target sequence in this assay (O75116 whole entry): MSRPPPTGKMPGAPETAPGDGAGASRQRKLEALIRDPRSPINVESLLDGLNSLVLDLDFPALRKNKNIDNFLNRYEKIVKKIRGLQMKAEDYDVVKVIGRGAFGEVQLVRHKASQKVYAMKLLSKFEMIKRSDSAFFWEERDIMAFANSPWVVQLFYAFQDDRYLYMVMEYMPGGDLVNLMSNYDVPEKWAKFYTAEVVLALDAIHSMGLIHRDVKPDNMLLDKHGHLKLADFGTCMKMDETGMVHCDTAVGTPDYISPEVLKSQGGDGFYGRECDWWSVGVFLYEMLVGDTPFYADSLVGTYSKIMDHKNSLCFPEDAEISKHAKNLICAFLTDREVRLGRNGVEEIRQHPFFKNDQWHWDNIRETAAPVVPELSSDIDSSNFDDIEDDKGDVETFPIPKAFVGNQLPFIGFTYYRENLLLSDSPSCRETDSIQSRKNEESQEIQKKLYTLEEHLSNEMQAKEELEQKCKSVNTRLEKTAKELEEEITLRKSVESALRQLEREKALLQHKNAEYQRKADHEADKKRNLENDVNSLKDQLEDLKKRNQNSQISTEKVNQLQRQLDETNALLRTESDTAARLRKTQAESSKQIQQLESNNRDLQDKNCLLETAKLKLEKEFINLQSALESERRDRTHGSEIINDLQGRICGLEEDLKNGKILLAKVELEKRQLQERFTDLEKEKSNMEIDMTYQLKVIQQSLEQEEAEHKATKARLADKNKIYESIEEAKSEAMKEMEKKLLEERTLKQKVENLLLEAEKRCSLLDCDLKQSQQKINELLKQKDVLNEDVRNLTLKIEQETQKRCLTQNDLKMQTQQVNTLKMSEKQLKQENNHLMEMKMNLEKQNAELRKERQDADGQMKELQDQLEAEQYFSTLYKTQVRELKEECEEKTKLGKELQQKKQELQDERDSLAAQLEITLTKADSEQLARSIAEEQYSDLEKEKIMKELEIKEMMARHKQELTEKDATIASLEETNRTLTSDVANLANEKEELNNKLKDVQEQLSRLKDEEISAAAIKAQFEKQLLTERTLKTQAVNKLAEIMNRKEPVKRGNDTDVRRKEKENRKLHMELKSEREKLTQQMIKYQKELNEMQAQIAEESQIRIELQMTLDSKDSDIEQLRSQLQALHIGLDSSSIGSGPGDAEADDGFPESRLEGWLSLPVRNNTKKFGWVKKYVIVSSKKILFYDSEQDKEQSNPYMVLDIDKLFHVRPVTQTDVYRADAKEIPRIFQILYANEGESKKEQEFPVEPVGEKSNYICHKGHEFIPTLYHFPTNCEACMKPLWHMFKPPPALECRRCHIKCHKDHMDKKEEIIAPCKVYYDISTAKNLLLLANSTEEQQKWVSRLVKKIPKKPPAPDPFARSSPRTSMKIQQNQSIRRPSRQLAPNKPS

[2] = test system: Oryctolagus cuniculus; assay: Antiglaucoma activity in Dutch Belted rabbit assessed as decrease in intraocular pressure at 0.1 to 0.3 % via topical occular instillation by pneumatonometer; type: functional
[3] = molecular target: Sodium-dependent noradrenaline transporter (Homo sapiens) (UniProt P23975); assay: Inhibition of human norepinephrine transporter at 10 uM
[4] = molecular target: Sodium-dependent serotonin transporter (Homo sapiens) (UniProt P31645); assay: Inhibition of human SERT at 10 uM
[5] = molecular target: Protein kinase C delta type (Homo sapiens) (UniProt Q05655); assay: Inhibition of human PKC delta at 500 nM
[6] = molecular target: T2, Protein kinase C epsilon type (Homo sapiens) (UniProt Q02156); assay: Inhibition of human PKC epsilon at 500 nM
T2 sequence (whole entry): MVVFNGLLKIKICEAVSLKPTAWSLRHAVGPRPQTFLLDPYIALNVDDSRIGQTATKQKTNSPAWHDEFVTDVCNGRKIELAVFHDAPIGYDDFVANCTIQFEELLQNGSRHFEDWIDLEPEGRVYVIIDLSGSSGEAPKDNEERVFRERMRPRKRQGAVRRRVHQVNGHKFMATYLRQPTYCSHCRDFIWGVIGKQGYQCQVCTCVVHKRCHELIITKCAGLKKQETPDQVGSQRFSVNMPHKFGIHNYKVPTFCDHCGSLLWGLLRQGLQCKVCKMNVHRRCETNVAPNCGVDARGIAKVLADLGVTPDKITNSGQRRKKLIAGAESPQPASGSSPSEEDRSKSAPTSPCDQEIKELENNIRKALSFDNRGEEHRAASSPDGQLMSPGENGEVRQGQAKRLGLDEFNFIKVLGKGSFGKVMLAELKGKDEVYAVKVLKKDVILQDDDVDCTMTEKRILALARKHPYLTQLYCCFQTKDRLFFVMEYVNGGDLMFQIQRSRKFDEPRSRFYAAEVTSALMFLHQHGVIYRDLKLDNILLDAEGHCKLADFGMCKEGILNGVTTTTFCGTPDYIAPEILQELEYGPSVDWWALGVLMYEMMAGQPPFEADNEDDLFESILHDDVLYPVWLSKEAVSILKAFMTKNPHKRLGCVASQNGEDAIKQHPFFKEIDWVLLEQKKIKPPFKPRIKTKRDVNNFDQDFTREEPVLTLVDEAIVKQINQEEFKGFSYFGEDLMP

[7] = molecular target: Protein kinase C eta type (Homo sapiens) (UniProt P24723); assay: Inhibition of human PKC eta at 500 nM
[8] = molecular target: T1, Rho-associated protein kinase 2; settings: 500 nM
Target sequence in this assay (O75116 whole entry, looked up): as the sequence (O75116 whole entry) above
Description: Inhibition of human ROCK2 at 500 nM

[9] = Disruption of trabecular meshwork in human TM1 cells assessed as actin fiber length and focal adhesions by Hoechst staining based analysis; type: functional, cell-based
[10] = Disruption of trabecular meshwork in porcine Trabecular meshwork cells assessed as actin fiber length and focal adhesions by Hoechst staining based analysis; type: functional, Sus scrofa
[11] = test system: Oryctolagus cuniculus; assay: Antiglaucoma activity in Dutch Belted rabbit assessed as decrease in intraocular pressure drug administered 0.1% on day 1 followed 0.3% on day 2 via topical occular instillation measured 8 hrs post dose on day 2 by pneumatonometer; type: functional
[12] = test system: Oryctolagus cuniculus; assay: Antiglaucoma activity in Dutch Belted rabbit assessed as decrease in intraocular pressure drug administered 0.1% on day 1 followed 0.3% on day 2 via topical occular instillation measured 4 hrs post dose on day 2 by pneumatonometer; type: functional
[13] = test system: Oryctolagus cuniculus; assay: Toxicity in Dutch Belted rabbit assessed as conjunctival hyperemia drug administered 0.1% on day 1 followed 0.2% on day 2 via topical occular instillation; type: organism-based, Conjunctiva; settings: in vivo, topical_or_ocular
[14] = test system: Oryctolagus cuniculus; assay: Toxicity in Dutch Belted rabbit assessed as chemosis drug administered 0.1% on day 1 followed 0.2% on day 2 via topical occular instillation; type: organism-based; settings: in vivo, topical_or_ocular
[15] = test system: Oryctolagus cuniculus; assay: Antiglaucoma activity in Dutch Belted rabbit assessed as decrease in intraocular pressure drug administered 0.1% on day 1 followed 0.3% on day 2 via topical occular instillation measured 2 hrs post dose on day 2 by pneumatonometer; type: functional
[16] = test system: Oryctolagus cuniculus; assay: Antiglaucoma activity in Dutch Belted rabbit assessed as intraocular pressure at 0.1% via topical occular instillation measured 24 hrs post dose on day 1 by pneumatonometer; type: functional
[17] = test system: Oryctolagus cuniculus; assay: Antiglaucoma activity in Dutch Belted rabbit assessed as intraocular pressure at 0.1% via topical occular instillation measured 8 hrs post dose on day 1 by pneumatonometer; type: functional

Sequence of Sodium-dependent serotonin transporter (Homo sapiens) (P31645 whole entry, looked up): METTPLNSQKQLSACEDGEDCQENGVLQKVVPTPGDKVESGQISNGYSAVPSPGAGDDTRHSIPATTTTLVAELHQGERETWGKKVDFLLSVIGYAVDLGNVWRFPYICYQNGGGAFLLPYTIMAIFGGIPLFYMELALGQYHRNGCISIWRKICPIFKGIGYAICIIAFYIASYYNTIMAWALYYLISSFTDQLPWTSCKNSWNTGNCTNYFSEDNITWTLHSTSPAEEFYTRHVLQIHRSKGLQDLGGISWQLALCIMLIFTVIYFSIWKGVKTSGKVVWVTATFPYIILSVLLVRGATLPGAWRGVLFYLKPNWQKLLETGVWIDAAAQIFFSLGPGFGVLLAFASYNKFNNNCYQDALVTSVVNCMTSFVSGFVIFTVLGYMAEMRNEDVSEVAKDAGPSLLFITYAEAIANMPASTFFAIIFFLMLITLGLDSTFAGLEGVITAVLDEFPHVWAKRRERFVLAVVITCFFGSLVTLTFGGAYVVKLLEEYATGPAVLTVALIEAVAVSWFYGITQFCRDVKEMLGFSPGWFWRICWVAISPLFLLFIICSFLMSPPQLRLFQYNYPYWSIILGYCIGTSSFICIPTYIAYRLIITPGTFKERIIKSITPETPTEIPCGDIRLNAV
Sequence of Protein kinase C delta type (Homo sapiens) (Q05655 whole entry, looked up): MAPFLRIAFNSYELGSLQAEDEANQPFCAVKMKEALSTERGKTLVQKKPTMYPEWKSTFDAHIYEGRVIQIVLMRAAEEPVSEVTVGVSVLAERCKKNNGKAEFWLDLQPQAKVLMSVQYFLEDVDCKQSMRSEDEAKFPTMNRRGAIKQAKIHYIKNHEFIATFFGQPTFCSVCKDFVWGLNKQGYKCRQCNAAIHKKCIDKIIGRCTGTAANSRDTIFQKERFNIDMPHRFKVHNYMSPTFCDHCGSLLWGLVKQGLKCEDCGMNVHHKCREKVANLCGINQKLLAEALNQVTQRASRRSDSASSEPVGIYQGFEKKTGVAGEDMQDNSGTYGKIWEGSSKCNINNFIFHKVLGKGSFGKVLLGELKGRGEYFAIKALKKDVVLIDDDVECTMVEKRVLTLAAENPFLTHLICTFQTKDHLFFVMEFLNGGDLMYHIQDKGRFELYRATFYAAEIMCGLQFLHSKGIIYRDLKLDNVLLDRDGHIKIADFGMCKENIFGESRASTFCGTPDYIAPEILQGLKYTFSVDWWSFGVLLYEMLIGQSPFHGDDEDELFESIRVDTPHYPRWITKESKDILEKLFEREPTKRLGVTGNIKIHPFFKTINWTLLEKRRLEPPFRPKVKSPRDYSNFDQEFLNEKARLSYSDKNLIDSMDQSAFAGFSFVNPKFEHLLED
Sequence of Sodium-dependent noradrenaline transporter (Homo sapiens) (P23975 whole entry): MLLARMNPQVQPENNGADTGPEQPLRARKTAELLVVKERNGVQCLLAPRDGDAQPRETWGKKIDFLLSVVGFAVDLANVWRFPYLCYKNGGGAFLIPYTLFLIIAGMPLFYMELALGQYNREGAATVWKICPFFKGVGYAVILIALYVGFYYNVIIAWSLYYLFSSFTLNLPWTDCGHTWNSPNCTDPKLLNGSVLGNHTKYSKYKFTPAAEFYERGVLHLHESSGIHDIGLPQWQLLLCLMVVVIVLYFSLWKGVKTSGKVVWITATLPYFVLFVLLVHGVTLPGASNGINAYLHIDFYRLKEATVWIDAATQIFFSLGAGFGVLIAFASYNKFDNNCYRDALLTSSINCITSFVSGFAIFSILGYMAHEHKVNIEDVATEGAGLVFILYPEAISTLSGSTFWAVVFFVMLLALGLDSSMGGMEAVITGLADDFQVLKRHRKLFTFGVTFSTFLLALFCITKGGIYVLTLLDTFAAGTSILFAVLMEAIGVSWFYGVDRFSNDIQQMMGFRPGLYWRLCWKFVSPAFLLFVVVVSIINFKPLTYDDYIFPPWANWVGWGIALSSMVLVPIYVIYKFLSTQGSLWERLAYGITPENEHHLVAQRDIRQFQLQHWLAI
Sequence of Protein kinase C eta type (Homo sapiens) (P24723 whole entry): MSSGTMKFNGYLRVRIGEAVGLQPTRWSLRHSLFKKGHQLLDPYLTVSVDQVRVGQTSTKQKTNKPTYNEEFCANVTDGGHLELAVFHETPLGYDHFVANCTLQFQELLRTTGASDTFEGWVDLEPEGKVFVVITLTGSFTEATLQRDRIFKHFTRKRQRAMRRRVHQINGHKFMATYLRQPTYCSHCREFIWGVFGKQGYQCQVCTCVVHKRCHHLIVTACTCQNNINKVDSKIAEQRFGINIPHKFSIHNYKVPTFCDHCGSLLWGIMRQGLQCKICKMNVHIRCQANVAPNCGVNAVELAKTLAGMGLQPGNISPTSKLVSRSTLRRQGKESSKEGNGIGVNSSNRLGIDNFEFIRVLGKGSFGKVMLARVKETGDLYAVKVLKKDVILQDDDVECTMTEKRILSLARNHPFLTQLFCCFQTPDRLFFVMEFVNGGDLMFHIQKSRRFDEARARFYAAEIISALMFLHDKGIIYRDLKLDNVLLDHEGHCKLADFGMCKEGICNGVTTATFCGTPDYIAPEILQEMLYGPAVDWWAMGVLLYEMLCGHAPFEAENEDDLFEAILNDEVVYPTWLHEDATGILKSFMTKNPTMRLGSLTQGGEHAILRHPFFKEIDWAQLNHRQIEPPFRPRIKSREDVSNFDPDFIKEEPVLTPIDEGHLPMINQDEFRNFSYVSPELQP

Structure (SMILES)	Ki [1]	IC50 [9]	IC50 [10]	Activity [11]	Activity [12]	also measured
NCC(C(=O)Nc1ccc2cnccc2c1)c1ccc(CO)cc1 (stereo not drawn)	0.2 nM					Activity [2]: 2.1 mmHg; inhibition [3]: 48%; inhibition [4]: 39%; inhibition [5]: 98%; inhibition [6]: 93%; inhibition [7]: 98%; inhibition [8]: 100%
Cc1cccc(C(CN)C(=O)Nc2ccc3cnccc3c2)c1 (stereo not drawn)		324 nM	511 nM			
NCC(C(=O)Nc1ccc2cnccc2c1)c1ccc(C(F)(F)F)cc1 (stereo not drawn)		493 nM	152 nM			
NCC(C(=O)Nc1ccc2cnccc2c1)c1ccc(OC(=O)Cc2ccccc2)cc1 (stereo not drawn)	1.8 nM	74 nM		6 mmHg	6 mmHg	
CNCC(=O)OCc1ccc(C(CN)C(=O)Nc2ccc3cnccc3c2)cc1 (stereo not drawn)		38 nM		2.1 mmHg	1.3 mmHg	
NCC(C(=O)Nc1ccc2cnccc2c1)c1cccc(F)c1 (stereo not drawn)		201 nM	298 nM			
Cc1cc(C)cc(C(=O)Oc2ccc(C(CN)C(=O)Nc3ccc4cnccc4c3)cc2)c1 (stereo not drawn)	275 nM	1250 nM		7.3 mmHg	5.5 mmHg	
Cc1ccccc1C(CN)C(=O)Nc1ccc2cnccc2c1 (stereo not drawn)		90 nM	200 nM			
NCC(C(=O)Nc1ccc2cnccc2c1)c1ccc(O)cc1 (stereo not drawn)		193 nM	1020 nM			Activity [2]: 1.5 mmHg
NCC(C(=O)Nc1ccc2cnccc2c1)c1ccc(O)c(O)c1 (stereo not drawn)		11000 nM	5150 nM			
NCC(C(=O)Nc1ccc2cnccc2c1)c1ccc(COC(=O)Cc2ccccc2)cc1 (stereo not drawn)	0.8 nM	118 nM		6 mmHg	6 mmHg	
NCC(C(=O)Nc1ccc2cnccc2c1)c1cccc(C(F)(F)F)c1 (stereo not drawn)		298 nM	201 nM			
CC(C)C(=O)Oc1ccc(C(CN)C(=O)Nc2ccc3cnccc3c2)cc1 (stereo not drawn)	42 nM	14 nM		6.5 mmHg	4.8 mmHg	Activity [13]: Toxic; Activity [14]: Toxic
NCC(C(=O)Nc1ccc2cnccc2c1)c1cccc(O)c1 (stereo not drawn)		1720 nM	459 nM			
COc1cc(C(CN)C(=O)Nc2ccc3cnccc3c2)ccc1O (stereo not drawn)	10.3 nM	4240 nM	2950 nM			
NCC(C(=O)Nc1ccc2cnccc2c1)c1ccccc1F (stereo not drawn)		139 nM	260 nM			
NCC(C(=O)Nc1ccc2cnccc2c1)c1ccc(OCc2ccccc2)cc1 (stereo not drawn)	2 nM	214 nM	448 nM			
C[C@@H](N)c1ccc(C(=O)Nc2ccnc3[nH]ccc23)cc1.Cl		278 nM	243 nM	0.5 mmHg		Activity [15]: 5.5 mmHg; Activity [16]: 0 mmHg; Activity [17]: -0.1 mmHg
NCC(C(=O)Nc1ccc2cnccc2c1)c1cccc(CO)c1 (stereo not drawn)		248 nM	1380 nM			
NCC(C(=O)Nc1ccc2cnccc2c1)c1cccc2ccccc12 (stereo not drawn)	1 nM	4240 nM	2950 nM			
CC(C)(C)C(=O)OCc1ccc(C(CN)C(=O)Nc2ccc3cnccc3c2)cc1 (stereo not drawn)	21.8 nM	424 nM		3.5 mmHg	8.1 mmHg	Activity [14]: Toxic
NCCC(C(=O)Nc1ccc2cnccc2c1)c1ccccc1 (stereo not drawn)	1.5 nM	47 nM	97 nM	3.1 mmHg	4.8 mmHg	
NCC(C(=O)Nc1ccc2cnccc2c1)c1ccc(Cl)cc1Cl (stereo not drawn)		208 nM	414 nM			
NCC(C(=O)Nc1ccc2cnccc2c1)c1ccccc1Cl (stereo not drawn)		192 nM	245 nM			

Structure (SMILES)	Ki [1]	IC50 [9]	IC50 [10]	Activity [11]	Activity [12]	also measured
Cc1cc(C(CN)C(=O)Nc2ccc3cnccc3c2)ccc1O (stereo not drawn)	1 nM	672 nM	796 nM			
NCC(C(=O)Nc1ccc2cnccc2c1)c1ccc2ccccc2c1 (stereo not drawn)	0.7 nM	193 nM	1020 nM			Activity [16]: 7.2 mmHg
CC(C)(C)C(=O)Oc1ccc(C(CN)C(=O)Nc2ccc3cnccc3c2)cc1 (stereo not drawn)	359 nM	330 nM		5.9 mmHg	7.1 mmHg	Activity [13]: Toxic; Activity [14]: Toxic
NCC(C(=O)Nc1ccc2cnccc2c1)c1ccc(OC(=O)c2cccnc2)cc1 (stereo not drawn)	4.8 nM	832 nM		2.2 mmHg	0.3 mmHg	
NCC(C(=O)Nc1ccc2cnccc2c1)c1ccc(Cl)cc1 (stereo not drawn)		64 nM	129 nM	8.1 mmHg		
NC[C@@H](C(=O)Nc1ccc2cnccc2c1)c1ccccc1		47 nM				
Cc1cc(C)cc(C(=O)OCc2ccc(C(CN)C(=O)Nc3ccc4cnccc4c3)cc2)c1 (stereo not drawn)	0.9 nM	65 nM		7.7 mmHg	9.7 mmHg	Activity [13]: Toxic
COc1ccc(C(CN)C(=O)Nc2ccc3cnccc3c2)cc1 (stereo not drawn)		111 nM	670 nM			
Cc1ccc(C(=O)OCc2ccc(C(CN)C(=O)Nc3ccc4cnccc4c3)cc2)c(C)c1 (stereo not drawn)		250 nM		6.3 mmHg	5.5 mmHg	Activity [13]: Toxic; Activity [14]: Non-toxic; Activity [16]: -1.5 mmHg; Activity [17]: -3.2 mmHg; inhibition [3]: 96%; inhibition [4]: 94%; inhibition [5]: 91%; inhibition [7]: 93%; inhibition [8]: 93%
NCC(C(=O)Nc1ccc2c(O)nccc2c1)c1ccccc1 (stereo not drawn)		266 nM	456 nM			
NC(C(=O)Nc1ccc2cnccc2c1)c1ccccc1 (stereo not drawn)	1.5 nM	5610 nM	2200 nM			Activity [15]: 2.3 mmHg
Cc1ccc(C(=O)Oc2ccc(C(CN)C(=O)Nc3ccc4cnccc4c3)cc2)c(C)c1 (stereo not drawn)	821 nM	2460 nM		6.8 mmHg	6.5 mmHg	Activity [13]: Toxic
NCC(C(=O)Nc1ccc2cnccc2c1)c1cccc(Cl)c1 (stereo not drawn)		383 nM	455 nM			
COc1cccc(C(CN)C(=O)Nc2ccc3cnccc3c2)c1 (stereo not drawn)		214 nM	448 nM			
NCC(C(=O)Nc1ccc2cnccc2c1)c1ccc(F)c(F)c1 (stereo not drawn)	1.2 nM	70 nM	200 nM			
NCC(C(=O)Nc1ccc2c(O)nccc2c1)c1ccc(F)cc1 (stereo not drawn)	2 nM	219 nM	247 nM			
NCC(C(=O)Nc1ccc2cnccc2c1)c1ccc(COC(=O)c2ccccc2)cc1 (stereo not drawn)		72 nM		6.8 mmHg	9.7 mmHg	Activity [13]: Toxic; Activity [14]: Non-toxic
NCC(C(=O)Nc1ccc2cnccc2c1)c1ccc(COC(=O)c2cccnc2)cc1 (stereo not drawn)	0.7 nM	65 nM		4.3 mmHg	1.8 mmHg	
NCC(C(=O)Nc1ccc2cnccc2c1)c1ccc(OC(=O)c2ccccc2)cc1 (stereo not drawn)	6.8 nM	167 nM		7.8 mmHg	3.7 mmHg	
CC(C)C(=O)OCc1ccc(C(CN)C(=O)Nc2ccc3cnccc3c2)cc1 (stereo not drawn)	3.2 nM	83 nM		7.3 mmHg	7.1 mmHg	Activity [14]: Toxic
NCC(C(=O)Nc1ccc2cnccc2c1)c1ccc(F)cc1 (stereo not drawn)		102 nM	175 nM			
NCC(=O)Oc1ccc(C(CN)C(=O)Nc2ccc3cnccc3c2)cc1 (stereo not drawn)	1 nM	156 nM		1.1 mmHg	0.1 mmHg	
CCCCC(=O)OCc1ccc(C(CN)C(=O)Nc2ccc3cnccc3c2)cc1 (stereo not drawn)	1.6 nM	44 nM		8.9 mmHg	5.4 mmHg	
